Laboratory results from PMC12979188, “Systematic analyses of lipid mobilization by human lipid transfer proteins” (Nature, 2026).

Experiments:
RBP4 = RBP4 (Homo sapiens, UniProt P02753); assay: affinity purification, SEC and mass spectrometry lipidomics; assay type: cell-based; details: in cellulo, HEK293; retinoid form not specified beyond vitamin A
RBP1 = target: T1, RBP1 (Homo sapiens, UniProt P09455); assay: as above; assay type: cell-based; details: in cellulo, HEK293; retinoid form not specified beyond vitamin A
T1 sequence (P09455 1-135): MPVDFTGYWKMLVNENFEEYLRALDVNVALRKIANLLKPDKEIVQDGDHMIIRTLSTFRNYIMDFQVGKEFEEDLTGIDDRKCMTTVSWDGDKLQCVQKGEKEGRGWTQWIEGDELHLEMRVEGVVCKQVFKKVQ

## CC1=C(/C=C/C(C)=C/C=C/C(C)=C/CO)C(C)(C)CCC1 [vitamin A]
RBP4
  affinity purification, SEC and mass spectrometry lipidomics: RBP1 and RBP4 formed complexes with vitamin A only in the cellular context
RBP1
  affinity purification, SEC and mass spectrometry lipidomics: RBP1 and RBP4 formed complexes with vitamin A only in the cellular context
